Measurements from PubChem BioAssay AID1259407 (Chemical Carcinogenesis Research Information System (CCRIS), 2018).
Activity calls are given as the source filed them. No rule for the calls is given here.

Test system: CCRIS mutagenicity, Ames/micronucleus/aberration tests
Assay: CCRIS mutagenicity studies
[1] = Test System: AMES SALMONELLA TYPHIMURIUM, Strain/Indicator: TA98, Metabolic Activation: NONE, Method: PREINCUBATION
[2] = Test System: AMES SALMONELLA TYPHIMURIUM, Strain/Indicator: TA100, Metabolic Activation: NONE, Method: PREINCUBATION
[3] = Test System: AMES SALMONELLA TYPHIMURIUM, Strain/Indicator: TA1535, Metabolic Activation: NONE, Method: PREINCUBATION
[4] = Test System: AMES SALMONELLA TYPHIMURIUM, Strain/Indicator: TA1537, Metabolic Activation: NONE, Method: PREINCUBATION
[5] = Test System: AMES SALMONELLA TYPHIMURIUM, Strain/Indicator: TA98, Metabolic Activation: NONE, Method: STANDARD PLATE
[6] = Test System: AMES SALMONELLA TYPHIMURIUM, Strain/Indicator: TA100, Metabolic Activation: NONE, Method: STANDARD PLATE

Measured: mutagenic call

CCCCCCCCCCO
inactive: [1] inactive; negative | Test System: AMES SALMONELLA TYPHIMURIUM, Strain/Indicator: TA98, Metabolic Activation: RAT, LIVER, S-9, PHENOBARBITAL AND BETA-NAPHTHOFLAVONE, Method: PREINCUBATION inactive; negative | [2] inactive; negative | Test System: AMES SALMONELLA TYPHIMURIUM, Strain/Indicator: TA100, Metabolic Activation: RAT, LIVER, S-9, PHENOBARBITAL AND BETA-NAPHTHOFLAVONE, Method: PREINCUBATION inactive; negative | Test System: AMES SALMONELLA TYPHIMURIUM, Strain/Indicator: TA102, Metabolic Activation: NONE, Method: PREINCUBATION inactive; negative | Test System: AMES SALMONELLA TYPHIMURIUM, Strain/Indicator: TA102, Metabolic Activation: RAT, LIVER, S-9, SODIUM PHENOBARBITAL AND 5,6-BENZOFLAVONE, Method: PREINCUBATION inactive; negative | Test System: AMES SALMONELLA TYPHIMURIUM, Strain/Indicator: TA104, Metabolic Activation: NONE, Method: PREINCUBATION inactive; negative | Test System: AMES SALMONELLA TYPHIMURIUM, Strain/Indicator: TA104, Metabolic Activation: RAT, LIVER, S-9, SODIUM PHENOBARBITAL AND 5,6-BENZOFLAVONE, Method: PREINCUBATION inactive; negative | [3] inactive; negative | Test System: AMES SALMONELLA TYPHIMURIUM, Strain/Indicator: TA1535, Metabolic Activation: RAT, LIVER, S-9, PHENOBARBITAL AND BETA-NAPHTHOFLAVONE, Method: PREINCUBATION inactive; negative | [4] inactive; negative | Test System: AMES SALMONELLA TYPHIMURIUM, Strain/Indicator: TA1537, Metabolic Activation: RAT, LIVER, S-9, PHENOBARBITAL AND BETA-NAPHTHOFLAVONE, Method: PREINCUBATION inactive; negative | Test System: CHINESE HAMSTER V-79, Strain/Indicator: V-79 (HPRT)/6-THIOGUANINE, Metabolic Activation: NONE, Method: STANDARD PLATE inactive; negative | Test System: CHINESE HAMSTER V-79, Strain/Indicator: V-79 (HPRT)/6-THIOGUANINE, Metabolic Activation: RAT LIVER S-9, Method: STANDARD PLATE inactive; negative | Test System: E. COLI, Strain/Indicator: WP2UVRA/PKM101, Metabolic Activation: NONE, Method: PREINCUBATION inactive; negative | Test System: E. COLI, Strain/Indicator: WP2UVRA/PKM101, Metabolic Activation: RAT, LIVER, S-9, PHENOBARBITAL AND BETA-NAPHTHOFLAVONE, Method: PREINCUBATION inactive; negative | Test System: E. COLI, Strain/Indicator: WP2UVRA, Metabolic Activation: NONE, Method: PREINCUBATION inactive; negative | Test System: E. COLI, Strain/Indicator: WP2UVRA, Metabolic Activation: RAT, LIVER, S-9, PHENOBARBITAL AND BETA-NAPHTHOFLAVONE, Method: PREINCUBATION inactive; negative

CC(=O)c1cccc(N=[N+]([O-])c2ccc(N)c(C(C)=O)c2C)c1C
inactive: [1] inactive; negative | Test System: AMES SALMONELLA TYPHIMURIUM, Strain/Indicator: TA98, Metabolic Activation: RAT, LIVER, S-9, PHENOBARBITAL AND 5,6-BENZOFLAVONE, Method: PREINCUBATION inactive; negative | [2] inactive; negative | Test System: AMES SALMONELLA TYPHIMURIUM, Strain/Indicator: TA100, Metabolic Activation: RAT, LIVER, S-9, PHENOBARBITAL AND 5,6-BENZOFLAVONE, Method: PREINCUBATION inactive; negative

Nc1cccc2c(=O)[nH][nH]c(=O)c12
inactive: Test System: AMES SALMONELLA TYPHIMURIUM, Strain/Indicator: TA97, Metabolic Activation: HAMSTER, LIVER, S-9, AROCLOR 1254 (10 OR 30%), Method: PREINCUBATION inactive; negative | Test System: AMES SALMONELLA TYPHIMURIUM, Strain/Indicator: TA97, Metabolic Activation: NONE, Method: PREINCUBATION inactive; negative | Test System: AMES SALMONELLA TYPHIMURIUM, Strain/Indicator: TA97, Metabolic Activation: RAT, LIVER, S-9, AROCLOR 1254 (10 OR 30%), Method: PREINCUBATION inactive; negative | Test System: AMES SALMONELLA TYPHIMURIUM, Strain/Indicator: TA98, Metabolic Activation: HAMSTER, LIVER, S-9, AROCLOR 1254 (10 OR 30%), Method: PREINCUBATION inactive; negative | [1] inactive; negative | Test System: AMES SALMONELLA TYPHIMURIUM, Strain/Indicator: TA98, Metabolic Activation: RAT, LIVER, S-9, AROCLOR 1254 (10 OR 30%), Method: PREINCUBATION inactive; negative | Test System: AMES SALMONELLA TYPHIMURIUM, Strain/Indicator: TA100, Metabolic Activation: HAMSTER, LIVER, S-9, AROCLOR 1254 (10 OR 30%), Method: PREINCUBATION inactive; negative | [2] inactive; negative | Test System: AMES SALMONELLA TYPHIMURIUM, Strain/Indicator: TA100, Metabolic Activation: RAT, LIVER, S-9, AROCLOR 1254 (10 OR 30%), Method: PREINCUBATION inactive; negative | Test System: AMES SALMONELLA TYPHIMURIUM, Strain/Indicator: TA1535, Metabolic Activation: HAMSTER, LIVER, S-9, AROCLOR 1254 (10 OR 30%), Method: PREINCUBATION inactive; negative | [3] inactive; negative | Test System: AMES SALMONELLA TYPHIMURIUM, Strain/Indicator: TA1535, Metabolic Activation: RAT, LIVER, S-9, AROCLOR 1254 (10 OR 30%), Method: PREINCUBATION inactive; negative | Test System: AMES SALMONELLA TYPHIMURIUM, Strain/Indicator: TA1537, Metabolic Activation: HAMSTER, LIVER, S-9, AROCLOR 1254 (10 OR 30%), Method: PREINCUBATION inactive; negative | [4] inactive; negative | Test System: AMES SALMONELLA TYPHIMURIUM, Strain/Indicator: TA1537, Metabolic Activation: RAT, LIVER, S-9, AROCLOR 1254 (10 OR 30%), Method: PREINCUBATION inactive; negative

CN(C)CCNC(=O)c1cccc2c1C(=O)c1ccccc1C2=O
active: Test System: AMES SALMONELLA TYPHIMURIUM, Strain/Indicator: TA1537, Metabolic Activation: NONE, Method: STANDARD PLATE active; positive

CC(O)C(C)O (centres undefined)
inactive: [1] inactive; negative | [2] inactive; negative | [3] inactive; negative | [4] inactive; negative | Test System: AMES SALMONELLA TYPHIMURIUM, Strain/Indicator: TA1538, Metabolic Activation: NONE, Method: PREINCUBATION inactive; negative | Test System: E. COLI, Strain/Indicator: WP2 UVRA, Metabolic Activation: NONE, Method: PREINCUBATION inactive; negative

O=[N+]([O-])c1ccc2c(ccc3cc([N+](=O)[O-])ccc32)c1
active: Test System: AMES SALMONELLA TYPHIMURIUM, Strain/Indicator: TA98(1,8-DNP6), Metabolic Activation: NONE, Method: STANDARD PLATE active; positive | Test System: AMES SALMONELLA TYPHIMURIUM, Strain/Indicator: TA98(NR), Metabolic Activation: NONE, Method: STANDARD PLATE active; positive | [1] active; positive | [5] active; positive | Test System: AMES SALMONELLA TYPHIMURIUM, Strain/Indicator: TA7001, Metabolic Activation: NONE, Method: PREINCUBATION active; positive | Test System: AMES SALMONELLA TYPHIMURIUM, Strain/Indicator: TA7002, Metabolic Activation: NONE, Method: PREINCUBATION active; positive | Test System: AMES SALMONELLA TYPHIMURIUM, Strain/Indicator: TA7003, Metabolic Activation: NONE, Method: PREINCUBATION active; positive | Test System: AMES SALMONELLA TYPHIMURIUM, Strain/Indicator: TA7004, Metabolic Activation: NONE, Method: PREINCUBATION active; positive | Test System: AMES SALMONELLA TYPHIMURIUM, Strain/Indicator: TA7005, Metabolic Activation: NONE, Method: PREINCUBATION active; positive | Test System: AMES SALMONELLA TYPHIMURIUM, Strain/Indicator: TA7006, Metabolic Activation: NONE, Method: PREINCUBATION active; positive
inactive: Test System: AMES SALMONELLA TYPHIMURIUM, Strain/Indicator: TA98, Metabolic Activation: RAT, LIVER, S-9, PCB (10%), Method: PREINCUBATION inactive; negative

Cc1ccc([N+](=O)[O-])c2c(NCCCN(C)C)c3ccccc3nc12
active: [5] active; positive | [6] active; positive

Cc1ccccc1OP(=O)(Oc1ccccc1C)Oc1ccccc1C
inactive: [6] inactive; negative
active: Test System: AMES SALMONELLA TYPHIMURIUM, Strain/Indicator: TA100, Metabolic Activation: RAT, LIVER, MICROSOMES, Method: STANDARD PLATE active; positive
